Structures can show the parent of a compound that is named as a salt.
Columns and labels:
EL-4 leukemic cells = assay: Test 3: In-Vitro Test of Inhibition of Growth of Cancer Cell by Macrophage; assay type: cell-based; conditions: for Inhibition of take-in of 3H-thymidine by EL-4 cells / activation of macrophage, in words: 8 mg/kg intraperitoneal; for Take-in Ratio of 3H-thymidine (average value): 8 mg/kg intraperitoneal to mice, macrophages collected after 4 days, mixed with EL-4 cells, control 80.2
Procedure: The results of the test of the action of the effective ingredient of the present invention on the macrophage will now be described with reference to the following Test 3. More specifically, the separated macrophage and EL-4 leukemic cell were mixed and cultured, and ^3 H-thymidine was added to a culture medium and the quantity of ^3 H-thymidine incorporated into the EL-4 cell was determined to examine the activity of the macrophage. When the macrophage is activated by administration of the effective ingredient of the present invention, inhibition of the growth of EL-4 cell, that is, phagocytosis of the cancer cell by the macrophage, is observed. Accordingly, if the take-in amount of ^3 H-thymidine is measured and this amount is reduced, it is confirmed that the macrophage has been activated. […] The dose was 8 mg per Kg of the body weight. To the control group, a physiological saline solution was similarly administered. After passage of 4 days, exuded abdominal cells were collected and deposited on a plastic Petri dish to collect macrophages. Then, 1×10^6 of so obtained macrophages and 1×10^5 of EL-4 leukemic cells of C57 BL/6J mouse were mixed and cultured in an RPMI 1640 culture medium to which 10% of bovine embryo serum was added (at 37° C. in the presence of 5% of CO2) for 24 hours. Then, 0.1μ Ci of ^3 H-thymidine was added and culturing was further conducted for 16 hours. Cells were collected on a filter paper from the culture medium and the amount of ^3 H-thymidine taken in was determined by a liquid scintillation counter. […] For comparison, the test was similarly carried out by using Levamisol hydrochloride.

Sarcoma 180 [1] = assay: Test 5: Test of Antitumor Effect to Sarcoma 180 by Subcutaneous Administration; assay type: in vivo, ICR female mice; conditions: 20 mg/kg subcutaneous
Procedure: To the control group, a physiological saline solution was similarly administered. […] The diameter D (mm) of the tumor was measured, and the average value and the number N of the living mice were determined to obtain results shown in Table 4.

delayed hypersensitivity = assay: Test 1: Test of Reinforcement of Delayed Hypersensitivity (picryl chloride); assay type: in vivo, ICR male mice
Source text: This system was used for the test of reinforcement of delayed hypersensitivity.
One group of eight ICR male mice, each having a body weight of about 30 g, were used for the test.
Sensitization was effected by coating a 7% solution of picryl chloride in a 4/1 mixture of olive oil and acetone on the shaved abdomen of the mouse.
Simultaneously with sensitization, a solution or suspension of the compound of the present invention in a 0.2% solution of carboxymethyl cellulose in a physiological saline was orally administered to the mouse at a dose of 50 mg per Kg of the body weight. To the control group, a 0.2% carboxymethyl cellulose solution in a physiological saline was similarly administered.
The delayed hypersensitivity was challenged 7 days after sensitization by gripping the ear of the mouse by a forceps wrapped with a felt impregnated with a 1% solution of picryl chloride in olive oil and coating the ear with the solution. The thickness of the ear was measured before challenging and 24 hours after challenging and the ratio of increase of the thickness (average value of both the ears in eight mice±standard deviation) was obtained as shown in Table 1.
For comparison, the test was similarly carried out by using Levamisole hydrochloride, and the obtained results are shown in Table 1. F.t tests were carried out. The group in which the test result was significant at a level of P<0.05 was marked by *, and the group in which the test result was significant at a level of P<0.01 was marked by **.

adjuvant arthritis = assay: Test 2: Adjuvant Arthritis Test; assay type: in vivo, SD male rats; conditions: 5 mg/kg subcutaneous, 9 times, left hind leg, * P<0.05, ** P<0.01
Sarcoma 180 [2] = assay: Test 4: Test of Antitumor Effect to Sarcoma 180 by Oral Administration; assay type: in vivo, ICR female mice
Procedure: To the control group, a physiological saline solution was similarly administered. The dose of the compound was 100 mg per Kg of the body weight. The diameter D (mm) of the tumor was measured, and the average value and the number N of the living mice were determined to obtain results shown in Table 4.

[3] = 50 mg/kg oral, simultaneously with sensitization, 24 h after challenge, control 29.6 ± 1.9, * P<0.05, ** P<0.01

## c1ccc([C@H]2CN3CCSC3=N2)cc1 [Levamisole hydrochloride, reference compound]
EL-4 leukemic cells
  Inhibition of take-in of 3H-thymidine by EL-4 cells / activation of macrophage, in words: does not exhibit such action
  Take-in Ratio of 3H-thymidine (average value): 49.0%
EL-4 leukemic cells; listed as Levamisole
  Inhibition of take-in of 3H-thymidine by EL-4 cells / activation of macrophage, in words: hardly exhibits such action
Sarcoma 180 [1]
  Carcinostatic activity on Sarcoma 180, in words: no substantial carcinostatic activity
Sarcoma 180 [1]; 2 weeks, control 10.8
  D: average diameter of tumor, 2 weeks: 7.7 mm
Sarcoma 180 [1]; 4 weeks, control 16.6
  D: average diameter of tumor, 4 weeks: 14.8 mm
Sarcoma 180 [1]; 6 weeks, control 20.3
  D: average diameter of tumor, 6 weeks: 14.4 mm
Sarcoma 180 [1]; 8 weeks, control 31.3
  D: average diameter of tumor, 8 weeks: 30.2 mm
Sarcoma 180 [1]; 10 weeks, control 40.5
  D: average diameter of tumor, 10 weeks: 31.6 mm
Sarcoma 180 [1]; of 6 mice, 0 weeks, control 6
  N: number of living mice, 0 weeks: 6
Sarcoma 180 [1]; of 6 mice, 2 weeks, control 6
  N: number of living mice, 2 weeks: 6
Sarcoma 180 [1]; of 6 mice, 4 weeks, control 6
  N: number of living mice, 4 weeks: 6
Sarcoma 180 [1]; of 6 mice, 6 weeks, control 6
  N: number of living mice, 6 weeks: 6
Sarcoma 180 [1]; of 6 mice, 8 weeks, control 4
  N: number of living mice, 8 weeks: 3
Sarcoma 180 [1]; of 6 mice, 10 weeks, control 1
  N: number of living mice, 10 weeks: 2
Delayed hypersensitivity; mouse, in vivo
  Ratio of Increase of Ear Thickness (average value ± standard variation): 35.6 ± 2.4%
Adjuvant arthritis; 15 days, control 84.4 ± 9.0
  Swelling Ratio (average value ± standard variation), 15 days: 65.2 ± 5.9%
Adjuvant arthritis; 18 days, control 103.2 ± 9.7
  Swelling Ratio (average value ± standard variation), 18 days: 69.3 ± 7.1%
Adjuvant arthritis; 21 days, control 107.5 ± 13.3
  Swelling Ratio (average value ± standard variation), 21 days: 80.7 ± 9.6%
Sarcoma 180 [2]; 100 mg/kg oral once a day, 10 days, 2 weeks, control 10.6
  D: average diameter of tumor, 2 weeks: 10.2 mm
Sarcoma 180 [2]; 100 mg/kg oral once a day, 10 days, 4 weeks, control 15.2
  D: average diameter of tumor, 4 weeks: 16.2 mm
Sarcoma 180 [2]; 100 mg/kg oral once a day, 10 days, 6 weeks, control 22.4
  D: average diameter of tumor, 6 weeks: 20.7 mm
Sarcoma 180 [2]; 100 mg/kg oral once a day, 10 days, 8 weeks, control 31.5
  D: average diameter of tumor, 8 weeks: 29.6 mm
Sarcoma 180 [2]; 100 mg/kg oral once a day, 10 days, 10 weeks, control 37.6
  D: average diameter of tumor, 10 weeks: 28.1 mm
Sarcoma 180 [2]; 100 mg/kg oral, repeated
  Carcinostatic action on Sarcoma 180, in words: no substantial carcinostatic action was observed
Sarcoma 180 [2]; 100 mg/kg oral, of 6 mice, 0 weeks, control 6
  N: number of living mice, 0 weeks: 6
Sarcoma 180 [2]; 100 mg/kg oral, of 6 mice, 2 weeks, control 6
  N: number of living mice, 2 weeks: 6
Sarcoma 180 [2]; 100 mg/kg oral, of 6 mice, 4 weeks, control 6
  N: number of living mice, 4 weeks: 6
Sarcoma 180 [2]; 100 mg/kg oral, of 6 mice, 6 weeks, control 6
  N: number of living mice, 6 weeks: 6
Sarcoma 180 [2]; 100 mg/kg oral, of 6 mice, 8 weeks, control 5
  N: number of living mice, 8 weeks: 6
Sarcoma 180 [2]; 100 mg/kg oral, of 6 mice, 10 weeks, control 1
  N: number of living mice, 10 weeks: 3

## CCN(CC)C(=O)N1CCN(c2ccccc2)CC1 [drawing 11]
Delayed hypersensitivity; [3]
  Ratio of Increase of Ear Thickness (average value ± standard variation): 44.0 ± 5.0%

## CCN(CC)C(=O)N1CCN(c2ccc(Cl)cc2)CC1 [drawing 12]
Delayed hypersensitivity; [3]
  Ratio of Increase of Ear Thickness (average value ± standard variation): 42.3 ± 3.7%

## CCN(CC)C(=O)N1CCN(c2ccc(OC)cc2)CC1 [drawing 13]
Delayed hypersensitivity; [3]
  Ratio of Increase of Ear Thickness (average value ± standard variation): 40.1 ± 4.2%

## CCOC(=O)c1ccc(N2CCN(C(=O)N(CC)CC)CC2)cc1 [drawing 14]
Delayed hypersensitivity; [3]
  Ratio of Increase of Ear Thickness (average value ± standard variation): 39.1 ± 4.0%

## CCN(CC)C(=O)N1CCN(c2ccc(C(=O)O)cc2)CC1 [drawing 15]
Delayed hypersensitivity; [3]
  Ratio of Increase of Ear Thickness (average value ± standard variation): 37.7 ± 3.0%

## CCN(CC)C(=O)N1CCN(c2ccc(C(C)=O)cc2)CC1 [drawing 16]
Delayed hypersensitivity; [3]
  Ratio of Increase of Ear Thickness (average value ± standard variation): 38.8 ± 3.5%

## CCN(CC)C(=O)N1CCN(c2ccccc2)CC1 [drawing 23]
EL-4 leukemic cells
  Take-in Ratio of 3H-thymidine (average value): 24.4%

## CCN(CC)C(=O)N1CCN(c2ccc(Cl)cc2)CC1 [drawing 24]
EL-4 leukemic cells
  Take-in Ratio of 3H-thymidine (average value): 20.5%

## CCN(CC)C(=O)N1CCN(c2ccc(OC)cc2)CC1 [drawing 25]
EL-4 leukemic cells
  Take-in Ratio of 3H-thymidine (average value): 27.7%

## CCOC(=O)c1ccc(N2CCN(C(=O)N(CC)CC)CC2)cc1 [drawing 26]
EL-4 leukemic cells
  Take-in Ratio of 3H-thymidine (average value): 30.3%

## CCN(CC)C(=O)N1CCN(c2ccc(C(=O)O)cc2)CC1 [drawing 27]
EL-4 leukemic cells
  Take-in Ratio of 3H-thymidine (average value): 29.8%

## CCN(CC)C(=O)N1CCN(c2ccc(C(C)=O)cc2)CC1 [drawing 28]
EL-4 leukemic cells
  Take-in Ratio of 3H-thymidine (average value): 27.4%

— patent US4446133A, “1-Phenyl-4-carbamoyl piperazine compounds, process for preparation thereof and utilizations thereof” (Misuitoatsu Chemicals, Inc., priority 1980, dated 1984)
